Structures can show the parent of a compound that is named as a salt.
Columns and labels:
TGFbeta = assay: In situ hybridization studies, TGFbeta expression
Excerpt: (§1) Cardiovascular risk correlates more closely with the systolic and the pulse pressure than with the diastolic pressure. In diabetic patients, the cardiovascular risk profile of diabetic patients is strongly correlated to duration of diabetes, glycemic control and blood pressure. Structural matrix proteins contribute to the function of vessels and the heart, and changes in the physical behavior of cardiovascular walls are believed to be important determinants of circulatory function. In elderly individuals, the loss of compliance in the aorta leads to isolated systolic hypertension, which in turn expands the arterial wall and thereby diminishes the dynamic range of elasticity.

[1] = test system: elderly patients with pulse pressures greater than 60 mm Hg; assay: Phase IIa clinical trial; format: in vivo, human
Excerpt: When the heart pumps blood into the vascular system, the ability of the arteries to expand helps to push blood through the body. When arteries become stiff, as they do in the natural process of aging, the ability of the arteries to expand is diminished and also has consequences for the heart. The heart has to work harder to pump the blood into the stiff arteries, and eventually hypertrophies (enlarges in size) to accomplish this. A hypertrophied heart is an inefficient pump, and is one of the disorders that leads to congestive heart failure. […] The potential clinical benefit of this is to lessen the effort that the heart must expend to push blood throughout the body. The effect is also believed to contribute to preventing hypertrophy and subsequent inefficiency of the heart, which inefficiency would contribute to congestive heart failure.
Atherosclerosis is a disease that involves deposition of blood lipids in plaque in the arteries throughout the body. In coronary arteries, accumulation of plaque progressively leads to reduced coronary flow, with occlusion of the arteries causing focal death of cardiac tissue (myocardial infarction, heart attack). If the amount of tissue that dies is large enough, death ensures. […] Reducing local deposits of plaque should eventually lessen the risk of myocardial infarction and death due to heart attacks.
Pulse pressure is the difference between systolic and diastolic blood pressure. In a young human, systolic pressure is typically 120 mm Hg and diastolic pressure is 80 mm Hg, resulting in a pulse pressure of 40 mm Hg. With age, in many individuals pulse pressure increases, largely due to the increase in systolic pressure that results from stiff vessel disease. In individuals with pulse pressure greater than 60 mm Hg there is an increased risk of death from cardiovascular morbidities. […] This decrease in pulse pressure was believed to be due primarily to the effect of the agent on lowering the systolic blood pressure.

Type IV collagen = assay: In situ hybridization studies, Type IV collagen expression
Excerpt: as §1

[2] = test system: Rats with left anterior descending coronary artery ligated; assay: Rat myocardial infarct model, left anterior descending coronary artery ligated; format: in vivo; conditions: 10 mg/kg intraperitoneal daily for 30 days before ligation and 14 days after
Description: Rats received a daily intraperitoneal dose of 10 mg/kg 3-[2-phenyl-2-oxoethyl]-4,5-dimethyl-thiazolium salt (compound A) (n=14) or placebo (n=15) for 30 days. The animals then underwent a thoracotomy and the left anterior descending coronary artery ligated. The chest was then closed and the animals allowed to recover for 14 days while continuing to be treated with compound A or placebo. The animals were then sacrificed and the hearts removed for histological examination. The weight of the infarcted tissue was 0.16±0.04 g for the placebo treated animals compared to 0.11±0.05 g for the compound A treated animals (p=0.04).

dog model for diabetes = assay: Dog model for diabetes, ventricular elasticity; format: in vivo
Excerpt: as §1

cardiovascular tissues = assay: In vivo studies of vascular stiffening and cardiovascular collagen; parameters: species or system rodents, canines and primates
Excerpt: as §1

## Cc1sc[n+](CC(=O)c2ccccc2)c1C [compound A, 3-[2-phenyl-2-oxoethyl]-4,5-dimethyl-thiazolium salt]
TGFbeta
  expression of TGFbeta: reduces the expression of both Type IV collagen and TGFbeta
[1]; Phase IIa clinical trial
  stiffness of arteries, measured by the ratio of stroke volume (ml) to pulse pressure (mm Hg): showed an ability to reverse the stiffness of arteries
[1]; Phase IIa trial
  amount of circulating triglycerides (lipids): increased the amount of circulating triglycerides
[1]; Phase IIa trial, elderly patients with pulse pressures greater than 60 mm Hg, statistically significant
  pulse pressure: reduced pulse pressure
Type IV collagen
  expression of Type IV collagen: reduces the expression of both Type IV collagen and TGFbeta
[2]; n=14, p=0.04 vs placebo
  weight of the infarcted tissue: 0.11 ± 0.05 g
[2]; n=14, p=0.09 vs placebo
  thickness of the ventricular wall in the infarcted zone: 2.56±0.22 mm
Dog model for diabetes
  end diastolic pressure and end diastolic volume, indicators of ventricular elasticity: returned to a value at about the mid-point between the disease impaired value and the value for control dogs
Cardiovascular tissues; in vivo
  mass of collagen in cardiovascular tissues: reduction in the mass of collagen in cardiovascular tissues
Cardiovascular tissues; in vivo studies in rodents, canines and primates
  vascular stiffening: substantially ameliorating vascular stiffening
